Experimental data: ChEMBL document CHEMBL6153074, “Discovery of novel dual tubulin and MMPs inhibitors for the treatment of lung cancer and overcoming drug resistance” (Eur J Med Chem, 2025)
The source made the active and inactive calls. No cut-off for these calls is given here.

Legend:
A549 [1] = experiment: cells; settings: Homo sapiens
Description: Antiproliferative activity against human A549 cells by CCK8 assay

MDA-MB-231 = experiment: Antiproliferative activity against human MDA-MB-231 cells by CCK8 assay
MCF7 = experiment: Antiproliferative activity against human MCF7 cells by CCK8 assay
NCI-H460 = experiment: Antiproliferative activity against human NCI-H460 cells by CCK8 assay
[2] = Selectivity index, ratio of IC50 for antiproliferative activity against human L02 cells to IC50 for antiproliferative activity against human A549 cells; format: toxicity, cell-based; settings: L02 cells and A549 cells, read-out: Ratio IC50
[3] = Antiproliferative activity against human L02 cells by CCK8 assay; format: toxicity, cell-based
[4] = Antiproliferative activity against human MCF-10A cells by CCK8 assay; format: toxicity, cell-based
[5] = Selectivity index, ratio of IC50 for antiproliferative activity against human MCF-10A cells to IC50 for antiproliferative activity against human MCF7 cells; format: toxicity, cell-based; settings: MCF-10A cells and MCF7 cells, read-out: Ratio IC50
A549 [6] = experiment: Induction of intracellular ROS accumulation in human A549 cells at 0.5 uM incubated for 24 hrs by DCFH-DA dye based flow cytometry (reference value: 4.96 %); format: functional
A549 [7] = experiment: Induction of apoptosis in human A549 cells assessed as early apoptotic cells at 0.5 uM incubated for 24 hrs by Annexin V-FITC/PI staining based flow cytometry (reference value: 3.04 %); format: functional
Tubulin (Homo sapiens) [8] = target: T1, Tubulin (Homo sapiens) (UniProt P68371+Q9H4B7+P0DPH7+P68366+Q13509+Q71U36+P04350+Q3ZCM7+P07437+P68363+Q9BQE3+Q6PEY2+Q13885+Q9BVA1+Q9BUF5); experiment: Disruption of microtubule network in human A549 cells assessed as contraction towards cell border at 5 uM incubated for 24 hrs by immunofluorescence based analysis
A549 [9] = experiment: Induction of apoptosis in human A549 cells assessed as late apoptotic cells at 0.5 uM incubated for 24 hrs by Annexin V-FITC/PI staining based flow cytometry (reference value: 1.01 %); format: functional
A549 [10] = experiment: Induction of apoptosis in human A549 cells assessed as necrotic cells at 0.5 uM incubated for 24 hrs by Annexin V-FITC/PI staining based flow cytometry (reference value: 0.13 %); format: functional
Tubulin (Homo sapiens) [11] = target: T1, Tubulin (Homo sapiens); experiment: Disruption of microtubule network in human A549 cells assessed as cell disorganisation at 5 uM incubated for 24 hrs by immunofluorescence based analysis
A549 [12] = experiment: Anti-migration activity in human A549 cells assessed as migration rate at 0.5 uM incubated for 24 hrs by wound healing assay (reference value: 73.94 %); format: functional
A549 [13] = experiment: Antitumor activity against human A549 cells xenografted in BALB/c mouse at 20 mg/kg, ip for 3 weeks administered on every 2 days relative to control; format: functional; settings: A549, 504 h, read-out: TGI
A549 [14] = experiment: Induction of cell cycle arrest in human A549 cells assessed as accumulation at G1 phase at 0.5 uM incubated for 24 hrs by PI staining based flow cytometry (reference value: 58.67 %); format: functional
A549 [15] = experiment: Induction of cell cycle arrest in human A549 cells assessed as accumulation at S phase at 0.5 uM incubated for 24 hrs by PI staining based flow cytometry (reference value: 37.95 %); format: functional
A549 [16] = experiment: Induction of apoptosis in human A549 cells assessed as viable cells at 0.5 uM incubated for 24 hrs by Annexin V-FITC/PI staining based flow cytometry (reference value: 95.82 %); format: functional; settings: read-out: Activity
A549 [17] = experiment: Induction of mitochondrial membrane potential loss in human A549 cells at 0.5 uM incubated for 24 hrs by JC-1 dye based analysis (reference value: 3.14 %); format: functional
A549 [18] = experiment: Induction of cell cycle arrest in human A549 cells assessed as accumulation at G2 phase at 0.5 uM incubated for 24 hrs by PI staining based flow cytometry (reference value: 3.37 %); format: functional
[19] = target: Matrix metalloproteinase-9 (Homo sapiens, UniProt P14780); experiment: Inhibition of MMP-9 (unknown origin) using fluorogenic-McaPro-Leu-Gly-Leu-Dpa-Ala-Arg-NH2 as substrate
Sequence of Matrix metalloproteinase-9 (P14780 whole entry): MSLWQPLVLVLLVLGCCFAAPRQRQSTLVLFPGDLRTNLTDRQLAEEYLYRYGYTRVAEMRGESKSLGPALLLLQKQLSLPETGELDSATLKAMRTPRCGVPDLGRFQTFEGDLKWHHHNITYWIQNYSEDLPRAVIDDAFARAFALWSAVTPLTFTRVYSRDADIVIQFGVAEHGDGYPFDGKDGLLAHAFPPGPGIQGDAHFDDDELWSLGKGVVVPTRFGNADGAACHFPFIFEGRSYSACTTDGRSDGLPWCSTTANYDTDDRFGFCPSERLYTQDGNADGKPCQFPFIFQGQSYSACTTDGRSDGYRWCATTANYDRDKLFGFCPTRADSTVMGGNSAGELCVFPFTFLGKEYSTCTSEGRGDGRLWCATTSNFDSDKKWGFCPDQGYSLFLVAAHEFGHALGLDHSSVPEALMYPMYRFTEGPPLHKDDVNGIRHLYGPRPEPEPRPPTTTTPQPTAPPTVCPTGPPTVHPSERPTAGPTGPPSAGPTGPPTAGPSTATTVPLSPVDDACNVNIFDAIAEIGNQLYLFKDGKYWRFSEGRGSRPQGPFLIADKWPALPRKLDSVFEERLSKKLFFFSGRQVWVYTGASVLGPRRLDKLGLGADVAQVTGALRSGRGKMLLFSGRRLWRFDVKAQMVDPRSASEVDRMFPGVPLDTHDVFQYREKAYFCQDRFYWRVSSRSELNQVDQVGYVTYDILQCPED

[20] = target: 72 kDa type IV collagenase (Homo sapiens, UniProt P08253); experiment: Inhibition of MMP-2 (unknown origin) using fluorogenic-McaPro-Leu-Gly-Leu-Dpa-Ala-Arg-NH2 as substrate
Sequence of 72 kDa type IV collagenase (P08253 whole entry): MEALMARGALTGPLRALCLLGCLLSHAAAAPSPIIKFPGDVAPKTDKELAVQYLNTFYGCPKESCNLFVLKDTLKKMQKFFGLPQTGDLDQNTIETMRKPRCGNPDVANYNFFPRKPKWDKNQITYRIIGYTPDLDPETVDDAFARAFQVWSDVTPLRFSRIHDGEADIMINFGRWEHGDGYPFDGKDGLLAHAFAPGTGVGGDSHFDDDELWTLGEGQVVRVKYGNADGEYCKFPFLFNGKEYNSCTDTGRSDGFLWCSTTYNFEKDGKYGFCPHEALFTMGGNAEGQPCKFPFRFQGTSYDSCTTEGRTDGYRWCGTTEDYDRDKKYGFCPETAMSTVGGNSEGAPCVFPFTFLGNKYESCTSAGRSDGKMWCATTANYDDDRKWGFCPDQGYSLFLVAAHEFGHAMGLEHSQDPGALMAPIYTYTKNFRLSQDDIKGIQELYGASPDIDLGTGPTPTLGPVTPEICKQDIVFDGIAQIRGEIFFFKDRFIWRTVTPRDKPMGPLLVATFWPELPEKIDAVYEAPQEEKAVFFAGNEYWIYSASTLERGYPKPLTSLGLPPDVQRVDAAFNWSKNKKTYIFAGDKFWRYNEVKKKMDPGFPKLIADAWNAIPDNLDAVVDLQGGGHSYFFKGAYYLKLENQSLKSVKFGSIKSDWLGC

Stromelysin-1 = Stromelysin-1 (Homo sapiens, UniProt P08254); experiment: Inhibition of MMP-3 (unknown origin) using fluorogenic-McaPro-Leu-Gly-Leu-Dpa-Ala-Arg-NH2 as substrate
Sequence of Stromelysin-1 (P08254 whole entry): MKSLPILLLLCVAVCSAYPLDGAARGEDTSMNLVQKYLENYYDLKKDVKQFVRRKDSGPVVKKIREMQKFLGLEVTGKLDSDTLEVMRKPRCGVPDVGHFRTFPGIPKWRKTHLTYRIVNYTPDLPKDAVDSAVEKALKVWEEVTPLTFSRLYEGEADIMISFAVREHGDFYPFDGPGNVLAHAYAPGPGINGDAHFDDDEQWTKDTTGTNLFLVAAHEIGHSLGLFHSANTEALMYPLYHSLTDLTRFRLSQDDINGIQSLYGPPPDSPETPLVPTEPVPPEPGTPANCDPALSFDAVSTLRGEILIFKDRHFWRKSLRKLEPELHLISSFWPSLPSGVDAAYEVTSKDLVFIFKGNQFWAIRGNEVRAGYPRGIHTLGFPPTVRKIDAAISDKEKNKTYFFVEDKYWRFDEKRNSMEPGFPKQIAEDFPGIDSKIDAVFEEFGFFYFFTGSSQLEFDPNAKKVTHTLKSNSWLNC

SMILES	IC50 (A549 [1]) [µM]	IC50 (MDA-MB-231) [µM]	IC50 (MCF7) [µM]	IC50 (NCI-H460) [µM]	also measured
CCOP(=O)(OCC)C(Nc1ccc(CC(=O)Oc2cc(/C=C/C(=O)c3ccc(OC)c4c3OC(C)(C)C=C4)ccc2OC)cc1)c1ccc(Br)cc1 (centres undefined)	0.741	0.959	0.829	0.78	–
CCOP(=O)(OCC)C(Nc1ccc(CC(=O)Oc2cc(/C=C/C(=O)c3ccc(OC)c4c3OC(C)(C)C=C4)ccc2OC)cc1)c1ccc(Cl)cc1 (centres undefined)	0.709	0.978	0.808	0.758	–
CCOP(=O)(OCC)C(Nc1ccc(CC(=O)Oc2cc(/C=C/C(=O)c3ccc(OC)c4c3OC(C)(C)C=C4)ccc2OC)cc1)c1cc(OC)c(OC)c(OC)c1 (centres undefined)	0.769	0.989	0.915	0.837	–
COc1ccc(/C=C/C(=O)c2ccc(OC)c3c2OC(C)(C)C=C3)cc1 [MILLEPACHINE]	5.94	4.29	5.62	7.91	–
COc1cccc2c1C(=O)c1c(O)c3c(c(O)c1C2=O)C[C@@](O)(C(=O)CO)C[C@@H]3O[C@H]1C[C@H](N)[C@H](O)[C@H](C)O1 [DOXORUBICIN]	–	–	–	–	IC50 [3]: 1.31 µM; IC50 [4]: 0.973 µM
CCOP(=O)(OCC)C(Nc1ccc(CC(=O)Oc2cc(/C=C/C(=O)c3ccc(OC)c4c3OC(C)(C)C=C4)ccc2OC)cc1)c1ccc(OC)c(OC)c1 (centres undefined)	0.608	0.936	0.822	0.731	–
CCOP(=O)(OCC)C(Nc1ccc(CC(=O)Oc2cc(/C=C/C(=O)c3cc(OC)c(OC)c(OC)c3)ccc2OC)cc1)c1cccc(Cl)c1 (centres undefined)	0.649	0.901	0.818	0.845	–
CCOP(=O)(OCC)C(Nc1ccc(CC(=O)Oc2cc(/C=C/C(=O)c3cc(OC)c(OC)c(OC)c3)ccc2OC)cc1)c1ccc(OC)c(OC)c1 (centres undefined)	0.683	0.893	0.806	0.739	–
CCOP(=O)(OCC)C(Nc1ccc(CC(=O)Oc2cc(/C=C/C(=O)c3ccc(OC)c4c3OC(C)(C)C=C4)ccc2OC)cc1)c1cccc(Cl)c1 (centres undefined)	0.656	0.928	0.732	0.785	–
CCOP(=O)(OCC)C(Nc1ccc(CC(=O)Oc2cc(/C=C/C(=O)c3cc(OC)c(OC)c(OC)c3)ccc2OC)cc1)c1cc(OC)c(OC)c(OC)c1 (centres undefined)	0.712	0.952	0.915	0.84	–
CCOP(=O)(OCC)C(Nc1ccc(CC(=O)Oc2cc(/C=C/C(=O)c3cc(OC)c(OC)c(OC)c3)ccc2OC)cc1)c1ccc(Br)cc1 (centres undefined)	0.609	0.939	0.872	0.762	–
Cc1ccc2nc(-c3cccc(NC(=O)CCc4ccccc4)c3)[nH]c2c1	–	–	–	–	IC50 [19]: 28.4 µM; IC50 [20]: 36.4 µM; IC50 (Stromelysin-1): 46.3 µM
COc1ccc(/C=C/C(=O)c2ccc(OC)c3c2OC(C)(C)C=C3)cc1O	1.22	1.04	1.15	1.07	–
CCOP(=O)(OCC)C(Nc1ccc(CC(=O)Oc2cc(/C=C/C(=O)c3cc(OC)c(OC)c(OC)c3)ccc2OC)cc1)c1ccccc1 (centres undefined)	0.632	0.94	0.828	0.704	–

More lines, main results first:

IC50 (A549 [1]) [µM]	IC50 (MDA-MB-231) [µM]	IC50 (MCF7) [µM]	IC50 (NCI-H460) [µM]	SMILES	also measured
0.109	0.208	0.122	0.155	CC(=O)O[C@H]1C(=O)[C@@]2(C)[C@H]([C@H](OC(=O)c3ccccc3)[C@]3(O)C[C@H](OC(=O)[C@H](O)[C@@H](NC(=O)c4ccccc4)c4ccccc4)C(C)=C1C3(C)C)[C@]1(OC(C)=O)CO[C@@H]1C[C@@H]2O [PACLITAXEL]	selectivity ratio [2]: 0.87; IC50 [3]: 0.095 µM; IC50 [4]: 0.114 µM; selectivity ratio [5]: 0.93
0.484	0.799	0.765	0.562	CCOP(=O)(OCC)C(Nc1ccc(CC(=O)Oc2cc(/C=C/C(=O)c3ccc(OC)c4c3OC(C)(C)C=C4)ccc2OC)cc1)c1ccc(C)cc1 (centres undefined)	–
0.379	0.721	0.667	0.465	CCOP(=O)(OCC)C(Nc1ccc(CC(=O)Oc2cc(/C=C/C(=O)c3cc(OC)c(OC)c(OC)c3)ccc2OC)cc1)c1cccc(OC)c1 (centres undefined)	–
0.591	0.898	0.797	0.698	CCOP(=O)(OCC)C(Nc1ccc(CC(=O)Oc2cc(/C=C/C(=O)c3ccc(OC)c4c3OC(C)(C)C=C4)ccc2OC)cc1)c1ccccc1 (centres undefined)	–
0.368	0.643	0.554	0.469	CCOP(=O)(OCC)C(Nc1ccc(CC(=O)Oc2cc(/C=C/C(=O)c3ccc(OC)c4c3OC(C)(C)C=C4)ccc2OC)cc1)c1ccc([N+](=O)[O-])cc1 (centres undefined)	–
0.328	0.57	0.507	0.423	CCOP(=O)(OCC)C(Nc1ccc(CC(=O)Oc2cc(/C=C/C(=O)c3cc(OC)c(OC)c(OC)c3)ccc2OC)cc1)c1ccc([N+](=O)[O-])cc1 (centres undefined)	–
0.399	0.668	0.54	0.452	CCOP(=O)(OCC)C(Nc1ccc(CC(=O)Oc2cc(/C=C/C(=O)c3cc(OC)c(OC)c(OC)c3)ccc2OC)cc1)c1ccc(C)cc1 (centres undefined)	–
0.253	0.492	0.357	0.267	CCOP(=O)(OCC)C(Nc1ccc(CC(=O)Oc2cc(/C=C/C(=O)c3cc(OC)c(OC)c(OC)c3)ccc2OC)cc1)c1cccc(F)c1 (centres undefined)	–
0.309	0.574	0.414	0.385	CCOP(=O)(OCC)C(Nc1ccc(CC(=O)Oc2cc(/C=C/C(=O)c3cc(OC)c(OC)c(OC)c3)ccc2OC)cc1)c1cccc(C)c1 (centres undefined)	–
0.206	0.454	0.332	0.299	CCOP(=O)(OCC)C(Nc1ccc(CC(=O)Oc2cc(/C=C/C(=O)c3ccc(OC)c4c3OC(C)(C)C=C4)ccc2OC)cc1)c1cccc([N+](=O)[O-])c1 (centres undefined)	–
0.56	0.934	0.801	0.654	CCOP(=O)(OCC)C(Nc1ccc(CC(=O)Oc2cc(/C=C/C(=O)c3ccc(OC)c4c3OC(C)(C)C=C4)ccc2OC)cc1)c1ccc(OC)cc1 (centres undefined)	–
0.456	0.808	0.722	0.538	COc1ccc(/C=C/C(=O)c2cc(OC)c(OC)c(OC)c2)cc1O	Activity (A549 [6]): 54.64%; Activity (A549 [7]): 24.49%; Activity (Tubulin (Homo sapiens) [8]): Active; Activity (A549 [9]): 5.23%; Activity (A549 [10]): 0.84%; selectivity ratio [2]: 2.4; Activity (Tubulin (Homo sapiens) [11]): Active; Activity (A549 [12]): 45.16%; inhibition in vivo at 20 mg/kg (A549 [13]): 64.7%; IC50 [3]: 1.09 µM; IC50 [4]: 0.967 µM; Activity (A549 [14]): 16.56%; Activity (A549 [15]): 14.34%; viability at 0.5 µM (A549 [16]): 69.5%; Activity (A549 [17]): 40.88%; Activity (A549 [18]): 69.1%; selectivity ratio [5]: 1.34
0.288	0.544	0.423	0.374	CCOP(=O)(OCC)C(Nc1ccc(CC(=O)Oc2cc(/C=C/C(=O)c3ccc(OC)c4c3OC(C)(C)C=C4)ccc2OC)cc1)c1cccc(F)c1 (centres undefined)	–
0.392	0.692	0.567	0.5	CCOP(=O)(OCC)C(Nc1ccc(CC(=O)Oc2cc(/C=C/C(=O)c3ccc(OC)c4c3OC(C)(C)C=C4)ccc2OC)cc1)c1ccc(F)cc1 (centres undefined)	–
0.545	0.834	0.752	0.658	CCOP(=O)(OCC)C(Nc1ccc(CC(=O)Oc2cc(/C=C/C(=O)c3cc(OC)c(OC)c(OC)c3)ccc2OC)cc1)c1ccc(OC)cc1 (centres undefined)	–
